Measurements as given in US7825093B2 (priority 2006, dated 2010).
Entries after “also recorded” stand apart in the source; their conditions may differ.

Experiments:
[1] = molecular target: human Kv1.3 channel (Homo sapiens, UniProt P22001); format: cell-based
[2] = tested on: human PBMCs; format: cell-based
[3] = tested on: human PBMCs; format: cell-based; remark: listed apart in the source
[4] = tested on: AT-EAE model; parameters: species or system Lewis rats; conditions: rat, in vivo, sc
[5] = tested on: IFN-g production in human whole blood; format: cell-based
[6] = tested on: CD40L on T cells in human whole blood; format: cell-based
[7] = tested on: IL-2R on T cells in human whole blood; format: cell-based
[8] = rat, in vivo, iv
[9] = tested on: IL-2 production in human whole blood
[10] = tested on: human PBMCs; format: cell-based; remark: listed apart in the source
[11] = molecular target: HEK 293 cells overexpressing human Kv1.3 (Homo sapiens, UniProt P22001); experiment: Immunohistochemistry analysis of binding to HEK 293 cells overexpressing human Kv1.3; conditions: 5 μg/ml
Chain of HEK 293 cells overexpressing human Kv1.3 (P22001 whole entry): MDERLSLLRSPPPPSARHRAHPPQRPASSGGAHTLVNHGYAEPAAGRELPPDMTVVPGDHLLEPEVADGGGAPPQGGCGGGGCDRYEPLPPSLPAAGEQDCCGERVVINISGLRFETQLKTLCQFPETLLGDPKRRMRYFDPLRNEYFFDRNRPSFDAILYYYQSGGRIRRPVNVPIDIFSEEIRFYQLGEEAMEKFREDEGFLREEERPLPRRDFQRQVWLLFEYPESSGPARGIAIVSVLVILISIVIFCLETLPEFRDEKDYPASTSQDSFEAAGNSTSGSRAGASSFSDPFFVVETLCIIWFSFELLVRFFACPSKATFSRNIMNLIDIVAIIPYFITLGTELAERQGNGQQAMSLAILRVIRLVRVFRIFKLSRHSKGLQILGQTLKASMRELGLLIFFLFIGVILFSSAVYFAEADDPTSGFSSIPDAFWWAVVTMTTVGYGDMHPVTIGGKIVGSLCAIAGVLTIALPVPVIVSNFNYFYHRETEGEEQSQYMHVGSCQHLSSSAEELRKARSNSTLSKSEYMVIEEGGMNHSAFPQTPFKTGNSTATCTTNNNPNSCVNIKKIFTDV
Description: Immunohistochemistry analysis of Fc-L10-ShK[1-35] binding to HEK 293 cells overexpressing human Kv1.3. HEK 293 cells overexpressing human Kv1.3 (HEK Kv1.3) were obtained from BioFocus plc (Cambridge, UK) and maintained per manufacturer's recommendation. The parental HEK 293 cell line was used as a control. Cells were plated on Poly-D-Lysine 24 well plates (#35-4414; Becton-Dickinson, Bedford, Mass.) and allowed to grow to approximately 70% confluence. HEK KV1.3 were plated at 0.5×10e5 cells/well in 1 ml/well of medium. HEK 293 cells were plated at a density of 1.5×10e5 cells/well in 1 ml/well of medium. Before staining, cells were fixed with formalin (Sigma HT50-1-1 Formalin solution, diluted 1:1 with PBS/0.5% BSA before use) by removing cell growth medium, adding 0.2 ml/well formalin solution and incubating at room temperature for ten minutes. Cells were stained by incubating with 0.2 ml/well of 5 μg/ml Fc-L10-ShK[1-35] in PBS/BSA for 30′ at room temperature. Fc-L10-ShK[1-35] was aspirated and then the cells were washed one time with PBS/0.5% BSA. Detection antibody (Goat F(ab)2 anti-human IgG-phycoerythrin; Southern Biotech Associates, Birmingham, Ala.) was added to the wells at 5 μg/ml in PBS/0.5% BSA and incubated for 30′ at room temperature. Wash cells once with PBS/0.5% BSA and examine using confocal microscopy (LSM 510 Meta Confocal Microscope; Carl Zeiss AG, Germany). […]

[12] = molecular target: Kv1.3 transfected HEK 293 cells (Homo sapiens, UniProt P22001); experiment: Whole cell immunoassay (ELISA) on fixed HEK 293 cells overexpressing Kv1.3; format: binding
Chain of Kv1.3 transfected HEK 293 cells (P22001 whole entry): as above
Description: Our peptibody reagent can be a useful and convenient tool for monitoring Kv1.3 channel expression in patients and have utility in diagnostic applications. The procedure shown in FIG. 34A and FIG. 34B follows.
FIG. 34A. A whole cell immunoassay was performed to show binding of intact Fc-L10-ShK[1-35] to Kv1.3 transfected HEK 293 cells (BioFocus plc, Cambridge, UK). Parent HEK 293 cells or HEK Kv1.3 cells were plated at 3×10e4 cells/well in poly-D-Lysine coated ninety-six well plates (#35-4461; Becton-Dickinson, Bedford, Mass.). Cells were fixed with formalin (Sigma HT50-1-1 Formalin solution, diluted 1:1 with PBS/0.5% BSA before use) by removing cell growth medium, adding 0.2 ml/well formalin solution and incubating at room temperature for 25 minutes and then washing one time with 100 μl/well of PBS/0.5% BSA. Wells were blocked by addition of 0.3 ml/well of BSA blocker (50-61-00; KPL 10% BSA Diluent/Blocking Solution, diluted 1:1 with PBS; KPL, Gaithersburg, Md.) followed by incubation at room temperature, with shaking, for 3 hr. Plates were washed 2 times with 1×KP Wash Buffer (50-63-00; KPL). […] Absorbance was read at 450 nm on a Molecular Devices SpectroMax 340 (Sunnyvale, Calif.).
FIG. 34B. […] Absorbances were read at 405 nm after stopping reactions by addition of 0.1 ml/well of 1% SDS.

Chain of human Kv1.3 channel (P22001 whole entry): as above

Molecule | block of human Kv1.3 current (in words) [1] | inhibition of IFNγ production [2] | inhibition of IFNg production [3] | average body weight lost [4] | disease severity and survival (in words) [4] | onset of disease [4] | thapsigargin-induced IFN-g production (in words) [5] | thapsigargin-induced upregulation of CD40L on T cells (in words) [6] | thapsigargin-induced upregulation of the IL-2R on T cells (in words) [7] | time with significant suppression of Kv1.3 current (<70 POC) by 5% serum Test solutions [8] | thapsigargin-induced IL-2 production (in words) [9] | inhibition of T cell proliferation [10] | staining of HEK 293 cells stably transfected with human Kv1.3 [11] | binding to fixed cells that overexpress Kv1.3 [12]
CC[C@H](C)[C@@H]1NC(=O)[C@@H](NC(=O)[C@H](CO)NC(=O)[C@@H](N)CCCNC(=N)N)CSSC[C@@H](C(=O)O)NC(=O)[C@H]([C@@H](C)O)NC(=O)CNC(=O)[C@@H]2CSSC[C@@H]3NC(=O)[C@H](CCC(N)=O)NC(=O)[C@H](Cc4ccccc4)NC(=O)[C@H](C)NC(=O)[C@H]([C@@H](C)O)NC(=O)[C@H](CSSC[C@H](NC(=O)[C@H](Cc4ccccc4)NC(=O)[C@H](CO)NC(=O)[C@H](CC(C)C)NC(=O)[C@H](CCCNC(=N)N)NC(=O)[C@H](Cc4ccc(O)cc4)NC(=O)[C@H](CCCCN)NC(=O)[C@H](CCSC)NC(=O)[C@H](CO)NC(=O)[C@H](Cc4cnc[nH]4)NC(=O)[C@H](CCCCN)NC3=O)C(=O)N[C@@H](CCCNC(=N)N)C(=O)N[C@@H](CCCCN)C(=O)N[C@@H]([C@@H](C)O)C(=O)N2)NC(=O)[C@H](CCCNC(=N)N)NC(=O)[C@H](CO)NC(=O)[C@H](CCCCN)NC(=O)[C@@H]2CCCN2C(=O)[C@H]([C@@H](C)CC)NC(=O)[C@H]([C@@H](C)O)NC(=O)[C@H](CC(=O)O)NC1=O [ShK, reference compound] | potently block Kv1.3 | only a partial inhibition | only partial inhibition | 30 g | developed severe disease and died | 4 days | suppressed | suppressed | suppressed | ≤ 1 h | suppressed |  |  | 
Fc-L10-ShK[1-35]: Fc region of human IgG1 fused via L10 linker to Kv1.3 inhibitor peptide ShK[1-35] |  | complete inhibition of the response | nearly complete inhibition |  |  |  |  | suppressed | suppressed |  |  | blocked T cell proliferation; also recorded: potently inhibits proliferation of T cells in a dose-dependent manner | stains HEK 293 cells stably transfected with human Kv1.3 | dose-dependent increase in response; also recorded: high affinity binding to its target
